Source: patent US20230114728A1 (Venatorx Pharmaceuticals, Inc., priority 2019, published 2023)
pEC50: −log10 of the molar value. ≈ marks a conversion by molar mass, not a printed value. Read-outs that look alike come from different tables or passages of the source.

How the values were obtained:
E. coli K12 PBP3 = molecular target: T1, E. coli K12 PBP3 (Escherichia coli, UniProt P0AD68); test: biochemical; type: binding
T1 construct: made in house
In short: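 A. baumannii PBP2 (2.5 μM) and PBP3 (0.2 μM) were run in 25 mM Tris pH 8.0 buffer with Tween 20; E. coli PBP3 (1.5 μM) and N. gonorrhoeae PBP2 ([…]) in 50 mM Hepes pH 8.0 buffer.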

P. aeruginosa PBP3 = molecular target: T2, P. aeruginosa PBP3 (Pseudomonas aeruginosa, UniProt G3XD46); test: Bocillin-FL fluorescence polarization competition binding assay, P. aeruginosa PBP3; details: fluorescence polarization competition binding assay using Bocillin-FL
T2 construct: made in house
In short: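 Inhibitor competition with Bocillin-FL for P. aeruginosa PBP3 was followed by fluorescence polarization on a Cytation3 (BioTek) reader, using g-factor 0.96, 490 nm excitation and 520 nm emission. The enzyme was at 0.75 μM and the probe at 0.1 μM in Hepes/NaCl/glycerol buffer, 80 μl per well. FP was recorded immediately after probe addition for up to 60 minutes. Potency was expressed as EC50, the concentration that reduces bound probe by 50%.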

A. baumannii ATCC 19606 = test: Broth microdilution MIC in CAMHB; type: cell-based; details: Acinetobacter baumannii, ATCC19606; MHB; read-out: Minimum Inhibitory Concentration, A. baumannii ATCC 19606
Description: (§1) Example III: In Vitro Antibacterial Assays
(§2) To determine the ability of test compounds to inhibit the growth of bacterial strains, classic cell based broth microdilution minimum inhibitory concentration (MIC) assays were employed. MIC assays are performed according to CLSI methods except where otherwise noted (CLSI, 2018 and CLSI, 2019). The reference type strain E. coli ATCC 25922; the wild-type parent strain E. coli AG100; the hyper-permeable E. coli 901C and E. coli D22; and the E. coli AG100A strain lacking the acrAB efflux pump encoding genes were used to determine the ability of the PBP inhibitors to penetrate the outer membrane of gram-negative bacteria and inhibit bacterial growth. […] The P. aeruginosa ATCC 27853 and A. baumannii ATCC 19606, along with the hyper-permeable P. aeruginosa ATCC 35151 and an engineered efflux pump-compromised strain of P. aeruginosa (ΔmexAB-oprM) were used to determine the ability of PBP inhibitors to penetrate the outer membrane of P. aeruginosa and A. baumannii and assess antibacterial activity against these important gram-negative organisms.
(§3) Briefly, cryo-preserved bacterial cultures of challenge strains are streaked for isolation on appropriate agar medium, in this case cation-adjusted Mueller Hinton agar. Following incubation to allow growth of the colonies, plates are sealed with parafilm and stored refrigerated for up to two weeks. For preparation of assay inoculum and to ensure low variability, at least 5 colonies are picked from the agar plates with an inoculating loop and aseptically transferred to a culture tube containing 3 mL of cation-adjusted Mueller Hinton broth (CAMHB). The broth culture is grown for 3-5 hours at 37° C. with shaking at 200 rpm. Meanwhile, 2-fold serial dilutions of test compounds are conducted in a 96-well plate with a final volume of 75 μL per well at 2-fold the final desired concentration. After the dilution plates are set up the growing cultures are then diluted in a cuvette containing CAMHB and the optical density is measured at 600 nm. The inoculum is diluted such that 75 μL of this culture in CAMHB results in a starting bacterial concentration of 2-8×10^5 CFU/mL when added to the dilution plates. The plates are incubated for 16-20 hours for Enterobacteriaceae and Pseudomonas and 20-24 hours for Acinetobacter at 37° C. The MIC values are read visually as the lowest concentration well with no bacterial growth.

E. coli 901C = test: Broth microdilution MIC in CAMHB; type: cell-based; details: Escherichia coli, MHB, read-out: Minimum Inhibitory Concentration, E. coli 901C
Description: as §1, §2, §3

[1] = test system: P. aeruginosa (ΔmexAB-oprM); test: Broth microdilution MIC in CAMHB; type: cell-based; details: Pseudomonas aeruginosa, read-out: Minimum Inhibitory Concentration, P. aeruginosa ΔmexAB-OprM
Description: as §1, §2, §3

E. coli AG100 = test: Broth microdilution MIC in CAMHB; type: cell-based; details: Escherichia coli, MHB, read-out: Minimum Inhibitory Concentration, E. coli AG100
Description: as §1, §2, §3

E. coli D22 = test: Broth microdilution MIC in CAMHB; type: cell-based; details: Escherichia coli, MHB, read-out: Minimum Inhibitory Concentration, E. coli D22
Description: as §1, §2, §3

P. aeruginosa ATCC 35151 = test: Broth microdilution MIC in CAMHB; type: cell-based; details: Pseudomonas aeruginosa, ATCC35151; MHB; hyper-permeable strain; read-out: Minimum Inhibitory Concentration, P. aeruginosa ATCC 35151
Description: as §1, §2, §3

[2] = test system: K. pneumoniae SI-117 producing VIM-1; test: Broth microdilution MIC in CAMHB; type: cell-based; details: Klebsiella pneumoniae, read-out: Minimum Inhibitory Concentration, K. pneumoniae SI-117
Description: as §1, §2, §3

E. coli AG100A = test: Broth microdilution MIC in CAMHB; type: cell-based; details: Escherichia coli, read-out: Minimum Inhibitory Concentration, E. coli AG100A
Description: as §1, §2, §3

P. aeruginosa ATCC 27853 = test: Broth microdilution MIC in CAMHB; type: cell-based; details: Pseudomonas aeruginosa, ATCC27853; MHB; read-out: Minimum Inhibitory Concentration, P. aeruginosa ATCC 27853
Description: as §1, §2, §3

[3] = test system: K. pneumoniae 848844 producing SHV-11 and KPC-2; test: Broth microdilution MIC in CAMHB; type: cell-based; details: Klebsiella pneumoniae, read-out: Minimum Inhibitory Concentration, K. pneumoniae 848844
Description: as §1, §2, §3

[4] = test system: K. pneumoniae UMM producing SHV-5 and KPC-2; test: Broth microdilution MIC in CAMHB; type: cell-based; details: Klebsiella pneumoniae, read-out: Minimum Inhibitory Concentration, K. pneumoniae UMM
Description: as §1, §2, §3

E. coli ATCC 25922 = test: Broth microdilution MIC in CAMHB; type: cell-based
Description: as §1, §2, §3

[5] = E. coli AG100 (wild-type parent)
[6] = Escherichia coli, ATCC25922; E. coli ATCC 25922; MHB; read-out: Minimum Inhibitory Concentration, E. coli 25922

T1 sequence (P0AD68 1-577): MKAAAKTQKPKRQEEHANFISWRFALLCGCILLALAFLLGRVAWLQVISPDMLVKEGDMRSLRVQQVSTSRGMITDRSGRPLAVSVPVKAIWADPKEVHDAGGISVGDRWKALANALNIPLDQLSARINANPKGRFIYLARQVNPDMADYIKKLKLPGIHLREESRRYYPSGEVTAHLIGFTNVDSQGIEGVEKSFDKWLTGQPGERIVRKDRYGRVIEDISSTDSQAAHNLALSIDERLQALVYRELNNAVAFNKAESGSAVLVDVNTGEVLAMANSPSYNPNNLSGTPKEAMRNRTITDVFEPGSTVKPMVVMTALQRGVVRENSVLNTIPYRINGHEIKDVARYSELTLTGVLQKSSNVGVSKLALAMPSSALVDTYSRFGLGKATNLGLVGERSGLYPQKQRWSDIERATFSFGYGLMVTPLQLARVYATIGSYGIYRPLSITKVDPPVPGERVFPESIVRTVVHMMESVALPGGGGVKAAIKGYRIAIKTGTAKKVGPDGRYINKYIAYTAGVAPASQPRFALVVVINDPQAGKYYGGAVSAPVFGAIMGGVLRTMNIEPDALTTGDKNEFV
T2 sequence (G3XD46 whole entry): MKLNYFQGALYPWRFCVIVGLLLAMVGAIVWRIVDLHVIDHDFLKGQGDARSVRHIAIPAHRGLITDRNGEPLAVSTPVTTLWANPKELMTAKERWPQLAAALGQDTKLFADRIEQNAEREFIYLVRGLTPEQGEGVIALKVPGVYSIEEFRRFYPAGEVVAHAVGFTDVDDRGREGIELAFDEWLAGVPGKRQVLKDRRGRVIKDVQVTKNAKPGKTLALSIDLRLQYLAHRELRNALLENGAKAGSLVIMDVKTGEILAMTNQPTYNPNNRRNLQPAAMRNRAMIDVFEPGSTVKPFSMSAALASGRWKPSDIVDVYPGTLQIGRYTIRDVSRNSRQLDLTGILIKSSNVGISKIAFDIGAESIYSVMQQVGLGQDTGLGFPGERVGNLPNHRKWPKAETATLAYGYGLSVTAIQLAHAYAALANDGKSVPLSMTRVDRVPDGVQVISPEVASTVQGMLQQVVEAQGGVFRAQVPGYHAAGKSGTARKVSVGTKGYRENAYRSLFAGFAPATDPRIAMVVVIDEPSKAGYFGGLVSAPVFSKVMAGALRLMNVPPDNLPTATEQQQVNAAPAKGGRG

SMILES: NS(=O)(=O)Nc1ccc(F)c([C@@H](NC(=O)N2CCN(CC(F)(F)F)C(=O)C2=O)C(=O)N[C@H]2Cc3cccc(C(=O)O)c3OB2O)c1 (single isomer, unassigned) [Example 219]
- pEC50 (E. coli K12 PBP3): > 4.52
- P. aeruginosa PBP3 Potency (P. aeruginosa PBP3): D (D represents a potency <10 μM)
- MIC (A. baumannii ATCC 19606): > 128 µg/mL
- MIC (E. coli 901C; E. coli 901C (hyper-permeable)): 0.5 to 1 µg/mL (≈ 0.741 to 1.48 µM)
- MIC [1]: 8 to 16 µg/mL (≈ 11.9 to 23.7 µM)
- MIC (E. coli AG100; [5]): 32 to 64 µg/mL (≈ 47.5 to 94.9 µM)
- MIC (E. coli D22; E. coli D22 (hyper-permeable)): 2 to 4 µg/mL (≈ 2.97 to 5.93 µM)
- MIC (P. aeruginosa ATCC 35151): 2 to 4 µg/mL (≈ 2.97 to 5.93 µM)
- MIC [2]: 32 to 64 µg/mL (≈ 47.5 to 94.9 µM)
- MIC (E. coli AG100A): 2 to 4 µg/mL (≈ 2.97 to 5.93 µM)
- MIC (P. aeruginosa ATCC 27853): > 128 µg/mL
- MIC [3]: > 128 µg/mL
- MIC [4]: 32 to 64 µg/mL (≈ 47.5 to 94.9 µM)
- MIC (E. coli ATCC 25922; [6]): 32 to 64 µg/mL (≈ 47.5 to 94.9 µM)

SMILES: NS(=O)(=O)Nc1cccc([C@@H](NC(=O)N2CCN(CC(F)(F)F)C(=O)C2=O)C(=O)N[C@H]2Cc3cccc(C(=O)O)c3OB2O)c1 (single isomer, unassigned) [Example 217]
- pEC50 (E. coli K12 PBP3): > 4.52
- P. aeruginosa PBP3 Potency (P. aeruginosa PBP3): D (D represents a potency <10 μM)
- MIC (A. baumannii ATCC 19606): > 128 µg/mL
- MIC (E. coli 901C; E. coli 901C (hyper-permeable)): 0.5 to 1 µg/mL (≈ 0.762 to 1.52 µM)
- MIC [1]: 8 to 16 µg/mL (≈ 12.2 to 24.4 µM)
- MIC (E. coli AG100; [5]): 32 to 64 µg/mL (≈ 48.8 to 97.5 µM)
- MIC (E. coli D22; E. coli D22 (hyper-permeable)): 2 to 4 µg/mL (≈ 3.05 to 6.09 µM)
- MIC (P. aeruginosa ATCC 35151): 2 to 4 µg/mL (≈ 3.05 to 6.09 µM)
- MIC [2]: > 128 µg/mL
- MIC (E. coli AG100A): 8 to 16 µg/mL (≈ 12.2 to 24.4 µM)
- MIC (P. aeruginosa ATCC 27853): > 128 µg/mL
- MIC [3]: > 128 µg/mL
- MIC [4]: 32 to 64 µg/mL (≈ 48.8 to 97.5 µM)
- MIC (E. coli ATCC 25922; [6]): 32 to 64 µg/mL (≈ 48.8 to 97.5 µM)

SMILES: NS(=O)(=O)Nc1ccc(F)c([C@H](NC(=O)N2CCN(CC(F)(F)F)C(=O)C2=O)C(=O)N[C@H]2Cc3cccc(C(=O)O)c3OB2O)c1 (single isomer, unassigned) [Example 218]
- pEC50 (E. coli K12 PBP3): 3.30 to 4.52
- P. aeruginosa PBP3 Potency (P. aeruginosa PBP3): C (C represents a potency between 10 and 30 μM)
- MIC (A. baumannii ATCC 19606): > 128 µg/mL
- MIC (E. coli 901C; E. coli 901C (hyper-permeable)): 0.5 to 1 µg/mL (≈ 0.741 to 1.48 µM)
- MIC [1]: 32 to 64 µg/mL (≈ 47.5 to 94.9 µM)
- MIC (E. coli AG100; [5]): > 128 µg/mL
- MIC (E. coli D22; E. coli D22 (hyper-permeable)): 8 to 16 µg/mL (≈ 11.9 to 23.7 µM)
- MIC (P. aeruginosa ATCC 35151): 8 to 16 µg/mL (≈ 11.9 to 23.7 µM)
- MIC [2]: > 128 µg/mL
- MIC (E. coli AG100A): 32 to 64 µg/mL (≈ 47.5 to 94.9 µM)
- MIC (P. aeruginosa ATCC 27853): > 128 µg/mL
- MIC [3]: > 128 µg/mL
- MIC [4]: > 128 µg/mL
- MIC (E. coli ATCC 25922; [6]): > 128 µg/mL

SMILES: O=C(O)c1cccc2c1OB(O)[C@@H](NC(=O)[C@H](NC(=O)N1CCN(CC(F)(F)F)C(=O)C1=O)c1c(F)cc(O)cc1F)C2 (single isomer, unassigned) [Example 215]
- pEC50 (E. coli K12 PBP3): > 4.52
- P. aeruginosa PBP3 Potency (P. aeruginosa PBP3): C (C represents a potency between 10 and 30 μM)
- MIC (A. baumannii ATCC 19606): > 128 µg/mL
- MIC (E. coli 901C; E. coli 901C (hyper-permeable)): < 0.25 µg/mL
- MIC [1]: 32 to 64 µg/mL (≈ 52.1 to 104 µM)
- MIC (E. coli AG100; [5]): 32 to 64 µg/mL (≈ 52.1 to 104 µM)
- MIC (E. coli D22; E. coli D22 (hyper-permeable)): 2 to 4 µg/mL (≈ 3.26 to 6.51 µM)
- MIC (P. aeruginosa ATCC 35151): 8 to 16 µg/mL (≈ 13 to 26 µM)
- MIC [2]: 32 to 64 µg/mL (≈ 52.1 to 104 µM)
- MIC (E. coli AG100A): 2 to 4 µg/mL (≈ 3.26 to 6.51 µM)
- MIC (P. aeruginosa ATCC 27853): > 128 µg/mL
- MIC [3]: > 128 µg/mL
- MIC [4]: 32 to 64 µg/mL (≈ 52.1 to 104 µM)
- MIC (E. coli ATCC 25922; [6]): 32 to 64 µg/mL (≈ 52.1 to 104 µM)

SMILES: CCN1C[C@H](C)N(C(=O)NC(C(=O)N[C@H]2Cc3cccc(C(=O)O)c3OB2O)c2c(F)cc(O)cc2F)C(=O)C1=O (stereo partly drawn) [Example 232, (3R)-3-(2-(2,6-difluoro-4-hydroxyphenyl)-2-((S)-4-ethyl-6-methyl-2,3-dioxopiperazine-1-carboxamido)acetamido)-2-hydroxy-3,4-dihydro-2H-benzo[e][1,2]oxaborinine-8-carboxylic acid]
- pEC50 (E. coli K12 PBP3): > 4.52
- P. aeruginosa PBP3 Potency (P. aeruginosa PBP3): D (D represents a potency <10 μM)
- MIC (A. baumannii ATCC 19606): > 128 µg/mL
- MIC (E. coli 901C; hyper-permeable E. coli 901C): 32 to 64 µg/mL (≈ 55.7 to 111 µM)
- MIC [1]: 8 to 16 µg/mL (≈ 13.9 to 27.9 µM)
- MIC (E. coli AG100; wild-type parent strain E. coli AG100): 32 to 64 µg/mL (≈ 55.7 to 111 µM)
- MIC (E. coli D22; hyper-permeable E. coli D22): 32 to 64 µg/mL (≈ 55.7 to 111 µM)
- MIC (P. aeruginosa ATCC 35151): 2 to 4 µg/mL (≈ 3.48 to 6.96 µM)
- MIC [2]: 2 to 4 µg/mL (≈ 3.48 to 6.96 µM)
- MIC (E. coli AG100A): 32 to 64 µg/mL (≈ 55.7 to 111 µM)
- MIC (P. aeruginosa ATCC 27853): > 128 µg/mL
- MIC [3]: 8 to 16 µg/mL (≈ 13.9 to 27.9 µM)
- MIC [4]: < 0.25 µg/mL
- MIC (E. coli ATCC 25922; Escherichia coli, ATCC25922; MHB; E. coli ATCC 25922; read-out: Minimum Inhibitory Concentration, E. coli 25922): 8 to 16 µg/mL (≈ 13.9 to 27.9 µM)
